From patent publication US4322540A, “Substituted 4,5,6,7-tetrahydro-1H (or 2H)-indazoles” (Eli Lilly and Company, priority 1981, dated 1982)
Where a name gives a salt, the structure may show the parent alone.

Columns and labels:
[1] = test system: nigro-neostriatal-lesioned rats; assay: Turning behavior in 6-hydroxy-dopamine-lesioned rats (dopamine agonist activity); type: in vivo, rat; conditions: intraperitoneal; for Percent of rats exhibiting turning behavior: 15-minute period after latency; for Number of turns (average): counted over 15-minute period
Protocol: In this test, nigro-neostriatal-lesioned rats, prepared by the procedure of Ungerstedt and Arbuthnott, Brain Res, 24, 485 (1970) are employed. A compound having dopamine agonist activity, upon injection, causes the rats to turn in circles contralateral to the side of the lesion. After a latency period, which varies from compound to compound, the number of turns is counted over a 15-minute period. The compounds are dissolved in water and the resulting aqueous solution injected into the rat by the intraperitioneal route at a series of dose levels.

[2] = test system: prolactin; assay: Inhibition of prolactin secretion in reserpine-treated rats; type: in vivo, adult male rats of the Sprague-Dawley strain; conditions: intraperitoneal, serum one hour after treatment, reserpine-treated male rats
Protocol: The compounds of this invention are also useful as prolactin inhibitors and as such can be employed in the treatment of inappropriate lactation, such as postpartum lactation and galactorrhea.
Adult male rats of the Sprague-Dawley strain weighing about 200 g. were housed in an air-conditioned room with controlled lighting (lights on 6 a.m.-8 p.m.) and fed lab chow and water ad libitum. Each rat received an intraperitioneal injection of 2.0 mg. of reserpine in aqueous suspension 18 hours before administration of the indazole. The purpose of the reserpine was to keep prolactin levels uniformly elevated. The compounds under test were dissolved in water and were injected intraperitioneally at doses ranging from 5 mg/kg down to […]. Each compound was administered at each dose level to a group of 10 rats, and a control group of 10 intact males received an equivalent amount of solvent. One hour after treatment all rats were killed by decapitation, and 150 μl aliquots of serum were assayed for prolactin.
The difference between the prolactin level of the treated rats and prolactin level of the control rats divided by the prolactin level of the control rats gives the percent inhibition of prolactin secretion attributable to the compounds of this invention. In the table, column 1 gives the name of the compound; and columns 2-4 the percent prolactin inhibition at the given dose level.

[3] = test system: mouse; assay: Acute toxicity (LD50) by the intraperitoneal route in the mouse; type: in vivo
Protocol: In using the compounds of this invention to inhibit prolactin secretion or to treat Parkinson's syndrome or for other pharmacologic action, a compound according to Formulas I and II above, or a salt thereof with a pharmaceutically-acceptable acid, is administered to a subject suffering from Parkinsonism, or in need of having their prolactin level reduced, in an amount effective to alleviate some of the symptoms of Parkinsonism or to reduce an elevated prolactin level. Oral administration is preferred. If parenteral administration is used, the injection is preferably by the subcutaneous route using an appropriate pharmaceutical formulation. […] In particular, with intravenous or intramuscular administration, a water soluble pharmaceutically-acceptable salt is employed. For oral administration, a compound according to Formulas I and II either as the free base or in the form of a salt thereof can also be mixed with standard pharmaceutical excipients and loaded into empty telescoping gelatin capsules or pressed into tablets. The oral dosage should be in the range 0.01-10 mg/kg of mammalian body weight and the parenteral dose in the range 0.0025 to 2.5 mg/kg. The LD50 of dl-5-di(n-propyl)amino-4,5,6,7-tetrahydro-1H(and 2H)-indazole dihydrochloride is between 100 and 300 mg/kg by the intraperitoneal route in the mouse.

Structure (SMILES)	Percent of rats exhibiting turning behavior ([1]; 1 mg/kg) [%]	Number of turns (average) ([1]; 1 mg/kg) [turns]	Percent Inhibition of Prolactin ([2]; 5 mg/kg) [%]	Percent Inhibition of Prolactin ([2]; 50 mcg/kg) [%]	Percent Inhibition of Prolactin ([2]; 500 mcg/kg) [%]	Percent of rats exhibiting turning behavior ([1]; 100 mcg/kg) [%]	Number of turns (average) ([1]; 100 mcg/kg) [turns]	Lethality ([3]; 10 mg/kg)	Lethality ([3]; 30 mg/kg)	Side effects ([3]; 30 mg/kg)	Percent of rats exhibiting turning behavior ([1]; 250 mcg/kg) [%]	Number of turns (average) ([1]; 250 mcg/kg) [turns]
NC1CCc2[nH]ncc2C1 (racemic) [dl-5-Amino-4,5,6,7-tetrahydro-1H-indazole dihydrochloride and dl-5-amino-4,5,6,7-tetrahydro-2H-indazole dihydrochloride]	33	7										
CN(C)C1CCc2[nH]ncc2C1 (racemic) [dl-5-Dimethylamino-4,5,6,7-tetrahydro-1H-indazole dihydrochloride and dl-5-dimethylamino-4,5,6,7-tetrahydro-2H-indazole dihydrochloride]	33	5	73	31	30							
CCCN(CCC)C1CCc2n[nH]cc2C1 (racemic) [dl-5-di(n-propyl)amino-4,5,6,7-tetrahydro-1H(and 2H)-indazole dihydrochloride]	67	48	94	1	66	33	6	not fatal	not fatal	produces some undesirable side effects		
CCCN(CCC)C1CCc2cn[nH]c2C1 (racemic) [dl-6-di-(n-propyl)amino-4,5,6,7-tetrahydro-1H(and 2H)-indazole dihydrochloride]	100	98		31		0					50	30
